Results from patent US8367873B2, “Phenyl-substituted bicyclooctane-1,3-dione derivatives” (Bayer Cropscience AG, priority 2008, dated 2013).

Key:
Type in all cases: in vivo
[1] = test system: monocotylidonous and dicotylidonous weed and crop plants; experiment: Herbicidal post-emergence action (other test plants); conditions: post-emergence method, 80 g/ha
Summary of the method: (§1)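 Post-emergence spray test: wettable-powder formulations are applied at different amounts to one-leaf-stage plants in 600 l/ha water containing 0.2% wetting agent. After roughly three weeks in the greenhouse, percent effect is rated visually relative to untreated controls.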

Setaria viridis [2] = experiment: Herbicidal post-emergence action; conditions: post-emergence method, 80 g/ha
Summary of the method: as §1

Alopecurus myosuroides [3] = experiment: Herbicidal post-emergence action; conditions: post-emergence method, 80 g/ha
Summary of the method: as §1

Echinocloa crus-galli [4] = experiment: Herbicidal post-emergence action; conditions: post-emergence method, 80 g/ha
Summary of the method: as §1

Lolium multiflorum [5] = experiment: Herbicidal post-emergence action; conditions: post-emergence method, 80 g/ha
Summary of the method: as §1

Setaria viridis [6] = experiment: Herbicidal pre-emergence action; conditions: pre-emergence method, 80 g/ha, greenhouse, visual assessment vs untreated controls
Description: (§2) Seeds of monocotylidonous and dicotylidonous weed and crop plants are placed in sandy loam in wood fibre pots and covered with soil. The test compounds, formulated in the form of wettable powders (WP), are then, as an aqueous suspension with a water application rate of 600 l/ha (converted), with 0.2% of wetting agent added, applied to the surface of the covering soil in different amounts.
(§3) After the treatment, the pots are placed in a greenhouse and kept under good growth conditions for the test plants. The visual assessment of the emergence damage on the test plants is carried out after a trial period of three weeks by comparison with the untreated controls (herbicidal effect in percent: 100% effect=the plants have died, 0% effect=like control plants).

Alopecurus myosuroides [7] = experiment: Herbicidal pre-emergence action; conditions: pre-emergence method, 80 g/ha, greenhouse, visual assessment vs untreated controls
Description: as §2, §3

Echinocloa crus-galli [8] = experiment: Herbicidal pre-emergence action; conditions: pre-emergence method, 80 g/ha, greenhouse, visual assessment vs untreated controls
Description: as §2, §3

Lolium multiflorum [9] = experiment: Herbicidal pre-emergence action; conditions: pre-emergence method, 80 g/ha, greenhouse, visual assessment vs untreated controls
Description: as §2, §3

[10] = test system: monocotylidonous and dicotylidonous weed and crop plants; experiment: Herbicidal pre-emergence action (other test plants); conditions: pre-emergence method, 80 g/ha, greenhouse, visual assessment vs untreated controls
Description: as §2, §3

Compound	herbicidal effect against AVEFA (Avena fatua) [1] [%]	herbicidal effect against SETVI (Setaria viridis) (Setaria viridis [2]) [%]	herbicidal effect against ALOMY (Alopecurus myosuroides) (Alopecurus myosuroides [3]) [%]	herbicidal effect against ECHCG (Echinochloa crus-galli) (Echinocloa crus-galli [4]) [%]	herbicidal effect against LOLMU (Lolium multiflorum) (Lolium multiflorum [5]) [%]	herbicidal effect SETVI (Setaria viridis [6]) [%]	herbicidal effect ALOMY (Alopecurus myosuroides [7]) [%]	herbicidal effect ECHCG (Echinocloa crus-galli [8]) [%]	herbicidal effect LOLMU (Lolium multiflorum [9]) [%]	herbicidal effect AVEFA [10] [%]
CCc1cc(C)cc(C)c1C1=C(OC(=O)C(C)C)C2CC3(CC2C1=O)OCC=CCO3 (stereo not drawn) [I-b-76]	90	100	90	100	100	70	100	100	100	60
CCc1cc(C)cc(C)c1C1=C(O)C2CC3(CC2C1=O)OCCCCO3 (stereo not drawn) [I-a-61]	90	90	90	100	100	60	70	80	100	60
Cc1cc(C)c(C2=C(OC(=O)C(C)C)C3CC4(COC(C)(C)O4)CC3C2=O)c(C)c1 (mixture of isomers) [I-b-46]	40	80	90	90	100	0	90	0	100	60
CCc1cc(C)cc(CC)c1C1=C(OC(=O)C(C)C)C2CC3(CC2C1=O)OCC(OCc1ccccc1)CO3 (stereo not drawn) [I-b-17]	90	90	90	100	100	90	90	100	100	80
COc1cc(C)cc(C)c1C1=C([O-])C2CC3(CC2C1=O)OCCCO3.[Na+] (stereo not drawn) [I-f-4]	90	100	100	100	100	50	0	90	100	50
C=C1COC2(C[C@@H]3C(OC(=O)OCC)=C(c4c(CC)cc(C)cc4CC)C(=O)[C@@H]3C2)OC1 (relative stereo) [I-c-12]	90	100	90	100	100	100	100	100	100	80
